Measurements from the supplement of paper PMC10307832.

Assays:
Test in all cases: relative viability (nuclei count vs DMSO), 5 days (fraction); higher = more cells survive
[1] = tested on: NCI-H1299
Outline: (§1)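 Relative viability is defined as nuclei in treated wells over nuclei in vehicle wells. Duplicate plates were run and medians reported. Lung cancer cell lines in 1536-well plates were dosed by pin tool one day after seeding, with one drug or with a fixed anchor-drug dose plus five library-drug doses (not always all listed) in √10 steps, and nuclei were counted after 5 days.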

[2] = tested on: NCI-H1703
Outline: as §1

[3] = tested on: NCI-H1437
Outline: as §1

[4] = tested on: HCC-366
Outline: as §1

[5] = tested on: Calu-6
Outline: as §1

[6] = tested on: EBC-1
Outline: as §1

[7] = tested on: NCI-H1623
Outline: as §1

[8] = tested on: IA-LM
Outline: as §1

[9] = tested on: A549
Outline: as §1

[10] = tested on: NCI-H1648
Outline: as §1

[11] = tested on: HCC-44
Outline: as §1

[12] = tested on: NCI-H522
Outline: as §1

O=C(O)c1ccc(-c2c[nH]c3ncc(-c4ccccc4)cc23)cc1C1CCCC1 + COc1cc2c(Oc3ccc(NC(=O)C4(C(=O)Nc5ccc(F)cc5)CC4)cc3F)ccnc2cc1OCCCN1CCOCC1 [Foretinib] (partner 0.25 µM)
relative viability ([1]; first compound 0.04 µM): 1.12 | relative viability ([1]; first compound 0.1265 µM): 1.14 | relative viability ([1]; first compound 0.4 µM): 1.04 | relative viability ([1]; first compound 1.265 µM): 0.956 | relative viability ([2]; first compound 0.04 µM): 0.381 | relative viability ([2]; first compound 0.1265 µM): 0.313 | relative viability ([2]; first compound 0.4 µM): 0.348 | relative viability ([2]; first compound 1.265 µM): 0.372 | relative viability ([3]; first compound 0.04 µM): 1.25 | relative viability ([3]; first compound 0.1265 µM): 1.19 | relative viability ([3]; first compound 0.4 µM): 1.11 | relative viability ([3]; first compound 1.265 µM): 0.923 | relative viability ([4]; first compound 0.04 µM): 0.948 | relative viability ([4]; first compound 0.1265 µM): 0.951 | relative viability ([4]; first compound 0.4 µM): 0.894 | relative viability ([4]; first compound 1.265 µM): 0.881 | relative viability ([5]; first compound 0.04 µM): 0.872 | relative viability ([5]; first compound 0.1265 µM): 0.904 | relative viability ([5]; first compound 0.4 µM): 0.815 | relative viability ([5]; first compound 1.265 µM): 0.706 | relative viability ([6]; first compound 0.04 µM): 0.112 | relative viability ([6]; first compound 0.1265 µM): 0.123 | relative viability ([6]; first compound 0.4 µM): 0.119 | relative viability ([6]; first compound 1.265 µM): 0.101 | relative viability ([7]; first compound 0.04 µM): 0.859 | relative viability ([7]; first compound 0.1265 µM): 0.747 | relative viability ([7]; first compound 0.4 µM): 0.835 | relative viability ([7]; first compound 1.265 µM): 0.798 | relative viability ([8]; first compound 0.04 µM): 1.23 | relative viability ([8]; first compound 0.1265 µM): 1.25 | relative viability ([8]; first compound 0.4 µM): 1.15 | relative viability ([8]; first compound 1.265 µM): 0.864 | relative viability ([9]; first compound 0.04 µM): 0.944 | relative viability ([9]; first compound 0.1265 µM): 1.07 | relative viability ([9]; first compound 0.4 µM): 1.07 | relative viability ([9]; first compound 1.265 µM): 0.628

O=C(O)c1ccc(-c2c[nH]c3ncc(-c4ccccc4)cc23)cc1C1CCCC1 + COc1cccc2cc(-c3nc([C@H]4CC[C@H](C(=O)O)CC4)n4ncnc(N)c34)[nH]c12 [OSI-027] (partner 0.5 µM)
relative viability ([3]; first compound 0.04 µM): 0.898 | relative viability ([3]; first compound 0.1265 µM): 0.926 | relative viability ([3]; first compound 0.4 µM): 1.01 | relative viability ([3]; first compound 1.265 µM): 0.565 | relative viability ([10]; first compound 0.04 µM): 0.245 | relative viability ([10]; first compound 0.1265 µM): 0.246 | relative viability ([10]; first compound 0.4 µM): 0.254 | relative viability ([10]; first compound 1.265 µM): 0.239 | relative viability ([4]; first compound 0.04 µM): 1.17 | relative viability ([4]; first compound 0.1265 µM): 0.849 | relative viability ([4]; first compound 0.4 µM): 0.966 | relative viability ([4]; first compound 1.265 µM): 0.994 | relative viability ([11]; first compound 0.04 µM): 0.512 | relative viability ([11]; first compound 0.1265 µM): 0.505 | relative viability ([11]; first compound 0.4 µM): 0.594 | relative viability ([11]; first compound 1.265 µM): 0.484 | relative viability ([12]; first compound 0.04 µM): 0.756 | relative viability ([12]; first compound 0.1265 µM): 0.74 | relative viability ([12]; first compound 0.4 µM): 0.56 | relative viability ([12]; first compound 1.265 µM): 0.775 | relative viability ([7]; first compound 0.04 µM): 0.4 | relative viability ([7]; first compound 0.1265 µM): 0.455 | relative viability ([7]; first compound 0.4 µM): 0.449 | relative viability ([7]; first compound 1.265 µM): 0.432

O=C(O)c1ccc(-c2c[nH]c3ncc(-c4ccccc4)cc23)cc1C1CCCC1 + Cc1cc(Nc2cc(N3CCN(C)CC3)nc(Sc3ccc(NC(=O)C4CC4)cc3)n2)n[nH]1 [Tozasertib] (partner 0.1 µM)
relative viability ([3]; first compound 0.04 µM): 0.402 | relative viability ([3]; first compound 0.1265 µM): 0.466 | relative viability ([3]; first compound 0.4 µM): 0.398 | relative viability ([3]; first compound 1.265 µM): 0.405 | relative viability ([10]; first compound 0.04 µM): 0.545 | relative viability ([10]; first compound 0.1265 µM): 0.635 | relative viability ([10]; first compound 0.4 µM): 0.439 | relative viability ([10]; first compound 1.265 µM): 0.378 | relative viability ([4]; first compound 0.04 µM): 0.128 | relative viability ([4]; first compound 0.1265 µM): 0.163 | relative viability ([4]; first compound 0.4 µM): 0.0869 | relative viability ([4]; first compound 1.265 µM): 0.0888 | relative viability ([11]; first compound 0.04 µM): 1.16 | relative viability ([11]; first compound 0.1265 µM): 1.15 | relative viability ([11]; first compound 0.4 µM): 0.853 | relative viability ([11]; first compound 1.265 µM): 0.616 | relative viability ([12]; first compound 0.04 µM): 0.537 | relative viability ([12]; first compound 0.1265 µM): 0.654 | relative viability ([12]; first compound 0.4 µM): 0.579 | relative viability ([12]; first compound 1.265 µM): 0.498 | relative viability ([7]; first compound 0.04 µM): 0.421 | relative viability ([7]; first compound 0.1265 µM): 0.488 | relative viability ([7]; first compound 0.4 µM): 0.481 | relative viability ([7]; first compound 1.265 µM): 0.398
